Reference: US7553798B2, “Heterocyclic carboxamides with microbiocidal activity” (Syngenta Crop Protection, Inc., priority 2004, dated 2009)

## Cn1cc(C(=O)Nc2ccccc2-c2ccc(C#CC(C)(C)C)s2)c(C(F)(F)F)n1 [Compound 1ai.098, 1-methyl-3-trifluoromethyl-1H-pyrazole-4-carboxylic acid {2-[5-(3,3-dimethyl-but-1-ynyl)-thiophen-2-yl]-phenyl}-amide]
  melting point: 122 to 125 °C

## Cn1cc(C(=O)Nc2ccccc2-n2cc(C#CC(C)(C)C)cn2)c(C(F)F)n1 [Compound 1ar.099, 3-difluoromethyl-1-methyl-1H-pyrazole-4-carboxylic acid {2-[4-(3,3-dimethyl-but-1-ynyl)-pyrazol-1-yl]-phenyl}-amide]
  melting point: 145 to 148 °C
